Source: patent publication US20260242419A1, “A CYCLIC PEPTIDE FOR TRAPPING INTERLEUKIN-1 BETA” (Merck Sharp & Dohme LLC, priority 2023, published 2026)
Starred links: 1 amine or outer side, 2 acyl side, 3 side chain; linkers in the order of their positions; H or OH if unused. Non-standard residues stand in square brackets, D forms with d. Residues, ends and D or L forms follow the SMILES beside them. dPro(4R-(4-pyridylmethyl)) = O=C(O)[C@H]1C[C@@H](Cc2ccncc2)CN1; Ala(piperidin-4-yl) = O=C([C@H](CC1CCN([*:3])CC1)N[*:1])[*:2]; Trp(βS-Me,4-F) = C[C@@H](c1c[nH]c2cccc(F)c12)[C@H](N)C(=O)O; Bip(4'-COOH) = N[C@@H](Cc1ccc(-c2ccc(C(=O)O)cc2)cc1)C(=O)O; Ala(1-bicyclo(1.1.1)pentyl) = N[C@@H](CC12CC(C1)C2)C(=O)O; dPro(4R-Bzl(4-F)) = O=C(O)[C@H]1C[C@@H](Cc2ccc(F)cc2)CN1; Ala(morpholin-4-yl) = N[C@@H](CN1CCOCC1)C(=O)O; Ala(piperazin-1-yl) = N[C@@H](CN1CCNCC1)C(=O)O; Phe(4-COOH) = N[C@@H](Cc1ccc(C(=O)O)cc1)C(=O)O; Pro(cis-4-F) = O=C(O)[C@@H]1C[C@H](F)CN1; d(αMeS) = C[C@@](N)(CO)C(=O)O; αMeK = C[C@](N)(CCCCN)C(=O)O; Dab = NCC[C@H](N)C(=O)O; Aib = CC(C)(N)C(=O)O

These compounds were tested against T1, IL-1β (Homo sapiens, UniProt P01584) (assay: IL-6 assay in MRC5 cells: inhibition of IL-1β induced IL-6 secretion (AlphaLISA)). Conditions: inhibition of IL-1β induced IL-6 secretion in MRC5 cells; read-out: MRC5 IC50.
T1 construct: purchased BioLegend 579404
Type: cell-based
Outline: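 Compound was pre-incubated 1 h at ambient temperature with recombinant human IL-1β at 2λ EC80 before adding human lung fibroblast MRC5 cells (3000/well) in EMEM with 0.025% BSA. After overnight culture at 37 °C, 5% CO2, secreted IL-6 in conditioned medium was measured by AlphaLISA; IC50 from 4-parameter logistic fits.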

T1 sequence (P01584 117-269): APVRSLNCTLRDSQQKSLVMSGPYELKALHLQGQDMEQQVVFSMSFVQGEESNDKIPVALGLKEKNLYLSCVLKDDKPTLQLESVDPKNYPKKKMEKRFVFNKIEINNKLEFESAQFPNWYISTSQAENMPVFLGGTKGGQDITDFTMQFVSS

| IC50 [nM] | Compound |
| --- | --- |
| 0.018 | C[C@@H](c1c[nH]c2cccc(F)c12)[C@@H]1NC(=O)[C@@H]2C[C@H](F)CN2C(=O)CNC(=O)[C@H](Cc2ccc(C(=O)O)cc2)NC(=O)[C@H](CC23CC(C2)C3)NC(=O)[C@H](Cc2ccc(-c3ccc(C(=O)O)cc3)cc2)NC(=O)[C@H]2C[C@@H](Cc3ccc(F)cc3)CN2C(=O)CNC(=O)[C@H](CCN)NC(=O)[C@H](CCC(N)=O)NC(=O)[C@H](CN2CCNCC2)NC(=O)C(C)(C)NC(=O)[C@H](Cc2c[nH]c3ccccc23)NC(=O)[C@H](CO)NC(=O)C(C)(C)NC1=O [Example 168] (cyclo([Bip(4'-COOH)][Ala(1-bicyclo(1.1.1)pentyl)][Phe(4-COOH)]G[Pro(cis-4-F)][Trp(βS-Me,4-F)][Aib]SW[Aib][Ala(piperazin-1-yl)]Q[Dab]G[dPro(4R-Bzl(4-F))])) |
| 0.019 | C[C@@H](c1c[nH]c2cccc(F)c12)[C@@H]1NC(=O)[C@@H]2C[C@H](F)CN2C(=O)CNC(=O)[C@H](Cc2ccc(C(=O)O)cc2)NC(=O)[C@H](CC23CC(C2)C3)NC(=O)[C@H](Cc2ccc(-c3ccc(C(=O)O)cc3)cc2)NC(=O)[C@H]2C[C@@H](Cc3ccc(F)cc3)CN2C(=O)CNC(=O)[C@H](CCN)NC(=O)[C@H](CCC(N)=O)NC(=O)[C@H](CC2CCNCC2)NC(=O)C(C)(C)NC(=O)[C@H](Cc2c[nH]c3ccccc23)NC(=O)[C@H](CO)NC(=O)C(C)(C)NC1=O [Example 169] (cyclo([Bip(4'-COOH)][Ala(1-bicyclo(1.1.1)pentyl)][Phe(4-COOH)]G[Pro(cis-4-F)][Trp(βS-Me,4-F)][Aib]SW[Aib][Ala(piperidin-4-yl)]Q[Dab]G[dPro(4R-Bzl(4-F))])) |
| 0.015 | C[C@@H](c1c[nH]c2cccc(F)c12)[C@@H]1NC(=O)[C@@H]2C[C@H](F)CN2C(=O)CNC(=O)[C@H](Cc2ccc(C(=O)O)cc2)NC(=O)[C@H](CC23CC(C2)C3)NC(=O)[C@H](Cc2ccc(-c3ccc(C(=O)O)cc3)cc2)NC(=O)[C@H]2C[C@@H](Cc3ccc(F)cc3)CN2C(=O)CNC(=O)[C@H](CCN)NC(=O)[C@H](CCC(N)=O)NC(=O)[C@H](CN2CCOCC2)NC(=O)[C@@](C)(CO)NC(=O)[C@H](Cc2c[nH]c3ccccc23)NC(=O)[C@H](CO)NC(=O)C(C)(C)NC1=O [Example 170] (cyclo([Bip(4'-COOH)][Ala(1-bicyclo(1.1.1)pentyl)][Phe(4-COOH)]G[Pro(cis-4-F)][Trp(βS-Me,4-F)][Aib]SW[d(αMeS)][Ala(morpholin-4-yl)]Q[Dab]G[dPro(4R-Bzl(4-F))])) |
| 0.016 | C[C@@H](c1c[nH]c2cccc(F)c12)[C@@H]1NC(=O)[C@@H]2C[C@H](F)CN2C(=O)CNC(=O)[C@H](Cc2ccc(C(=O)O)cc2)NC(=O)[C@H](CC23CC(C2)C3)NC(=O)[C@H](Cc2ccc(-c3ccc(C(=O)O)cc3)cc2)NC(=O)[C@H]2C[C@@H](Cc3ccc(F)cc3)CN2C(=O)CNC(=O)[C@H](CCN)NC(=O)[C@H](CCC(N)=O)NC(=O)[C@H](CN2CCNCC2)NC(=O)[C@@](C)(CO)NC(=O)[C@H](Cc2c[nH]c3ccccc23)NC(=O)[C@H](CO)NC(=O)C(C)(C)NC1=O [Example 171] (cyclo([Bip(4'-COOH)][Ala(1-bicyclo(1.1.1)pentyl)][Phe(4-COOH)]G[Pro(cis-4-F)][Trp(βS-Me,4-F)][Aib]SW[d(αMeS)][Ala(piperazin-1-yl)]Q[Dab]G[dPro(4R-Bzl(4-F))])) |
| 0.016 | C[C@@H](c1c[nH]c2cccc(F)c12)[C@@H]1NC(=O)[C@@H]2C[C@H](F)CN2C(=O)CNC(=O)[C@H](Cc2ccc(C(=O)O)cc2)NC(=O)[C@H](CC23CC(C2)C3)NC(=O)[C@H](Cc2ccc(-c3ccc(C(=O)O)cc3)cc2)NC(=O)[C@H]2C[C@@H](Cc3ccc(F)cc3)CN2C(=O)CNC(=O)[C@H](CCN)NC(=O)[C@H](CCC(N)=O)NC(=O)[C@H](CC2CCNCC2)NC(=O)[C@@](C)(CO)NC(=O)[C@H](Cc2c[nH]c3ccccc23)NC(=O)[C@H](CO)NC(=O)C(C)(C)NC1=O [Example 172] (cyclo([Bip(4'-COOH)][Ala(1-bicyclo(1.1.1)pentyl)][Phe(4-COOH)]G[Pro(cis-4-F)][Trp(βS-Me,4-F)][Aib]SW[d(αMeS)][Ala(piperidin-4-yl)]Q[Dab]G[dPro(4R-Bzl(4-F))])) |
| 0.037 | C[C@@H](c1c[nH]c2cccc(F)c12)[C@@H]1NC(=O)[C@@H]2C[C@H](F)CN2C(=O)CNC(=O)[C@H](Cc2ccc(C(=O)O)cc2)NC(=O)[C@H](CC23CC(C2)C3)NC(=O)[C@H](Cc2ccc(-c3ccc(C(=O)O)cc3)cc2)NC(=O)[C@H]2C[C@@H](Cc3ccc(F)cc3)CN2C(=O)CNC(=O)[C@H](CO)NC(=O)[C@H](CCC(N)=O)NC(=O)[C@H](CN2CCOCC2)NC(=O)[C@](C)(CCCCN)NC(=O)[C@H](Cc2c[nH]c3ccccc23)NC(=O)[C@H](CO)NC(=O)C(C)(C)NC1=O [Example 173] (cyclo([Bip(4'-COOH)][Ala(1-bicyclo(1.1.1)pentyl)][Phe(4-COOH)]G[Pro(cis-4-F)][Trp(βS-Me,4-F)][Aib]SW[αMeK][Ala(morpholin-4-yl)]QSG[dPro(4R-Bzl(4-F))])) |
| 0.025 | C[C@@H](c1c[nH]c2cccc(F)c12)[C@@H]1NC(=O)[C@@H]2C[C@H](F)CN2C(=O)CNC(=O)[C@H](Cc2ccc(C(=O)O)cc2)NC(=O)[C@H](CC23CC(C2)C3)NC(=O)[C@H](Cc2ccc(-c3ccc(C(=O)O)cc3)cc2)NC(=O)[C@H]2C[C@@H](Cc3ccc(F)cc3)CN2C(=O)CNC(=O)[C@H](CCN)NC(=O)[C@H](CCC(N)=O)NC(=O)[C@H](CN2CCOCC2)NC(=O)[C@](C)(CCCCN)NC(=O)[C@H](Cc2c[nH]c3ccccc23)NC(=O)[C@H](CO)NC(=O)C(C)(C)NC1=O [Example 174] (cyclo([Bip(4'-COOH)][Ala(1-bicyclo(1.1.1)pentyl)][Phe(4-COOH)]G[Pro(cis-4-F)][Trp(βS-Me,4-F)][Aib]SW[αMeK][Ala(morpholin-4-yl)]Q[Dab]G[dPro(4R-Bzl(4-F))])) |
| 0.037 | C[C@@H](c1c[nH]c2cccc(F)c12)[C@@H]1NC(=O)[C@@H]2C[C@H](F)CN2C(=O)CNC(=O)[C@H](Cc2ccc(C(=O)O)cc2)NC(=O)[C@H](CC23CC(C2)C3)NC(=O)[C@H](Cc2ccc(-c3ccc(C(=O)O)cc3)cc2)NC(=O)[C@H]2C[C@@H](Cc3ccc(F)cc3)CN2C(=O)CNC(=O)[C@H](CO)NC(=O)[C@H](CCC(N)=O)NC(=O)[C@H](CN2CCNCC2)NC(=O)[C@](C)(CCCCN)NC(=O)[C@H](Cc2c[nH]c3ccccc23)NC(=O)[C@H](CO)NC(=O)C(C)(C)NC1=O [Example 175] (cyclo([Bip(4'-COOH)][Ala(1-bicyclo(1.1.1)pentyl)][Phe(4-COOH)]G[Pro(cis-4-F)][Trp(βS-Me,4-F)][Aib]SW[αMeK][Ala(piperazin-1-yl)]QSG[dPro(4R-Bzl(4-F))])) |
| 0.036 | C[C@@H](c1c[nH]c2cccc(F)c12)[C@@H]1NC(=O)[C@@H]2C[C@H](F)CN2C(=O)CNC(=O)[C@H](Cc2ccc(C(=O)O)cc2)NC(=O)[C@H](CC23CC(C2)C3)NC(=O)[C@H](Cc2ccc(-c3ccc(C(=O)O)cc3)cc2)NC(=O)[C@H]2C[C@@H](Cc3ccncc3)CN2C(=O)CNC(=O)[C@H](CO)NC(=O)[C@H](CCC(N)=O)NC(=O)[C@H](CC2CCNCC2)NC(=O)C(C)(C)NC(=O)[C@H](Cc2c[nH]c3ccccc23)NC(=O)[C@H](CCC(=O)O)NC(=O)C(C)(C)NC1=O [Example 176] (cyclo([Bip(4'-COOH)][Ala(1-bicyclo(1.1.1)pentyl)][Phe(4-COOH)]G[Pro(cis-4-F)][Trp(βS-Me,4-F)][Aib]EW[Aib][Ala(piperidin-4-yl)]QSG[dPro(4R-(4-pyridylmethyl))])) |
